Results: ChEMBL document CHEMBL1201862, “PubChem BioAssay data set” (2004)
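In this assay, cells in 96-well plates receive the compound at five concentrations for 48 hours. Endpoints are linearly interpolated between the surrounding concentrations. At the GI50, growth is halved.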 The source made the active and inactive calls. No stated cut-off is given here; in the data, active = GI50 up to about 1.1 µM and inactive = higher.

Columns and labels:
Test in all cases: NCI-60 cell line screen, 48 h
[1] = system: HL-60
[2] = system: KM12
[3] = system: SN12C
[4] = system: IGROV-1
[5] = system: UACC-257
[6] = system: OVCAR-5
[7] = system: HCT-15
[8] = system: HT-29
[9] = system: A498
[10] = system: M19-MEL
[11] = system: ACHN
[12] = system: HCT-116
[13] = system: SW-620
[14] = system: EKVX
[15] = system: A549
[16] = system: NCI-H23
[17] = system: K562
[18] = system: M14
[19] = system: NCI-H226
[20] = system: COLO 205
[21] = system: DLD-1
[22] = system: HOP-92
[23] = system: DMS-114
[24] = system: 786-0
[25] = system: OVCAR-3
[26] = system: LXFL 529
[27] = system: SNB-75
[28] = system: SNB-78
[29] = system: NCI-H460
[30] = system: Malme-3M
[31] = system: UO-31
[32] = system: U-251
[33] = system: OVCAR-8
[34] = system: KM-20L2
[35] = system: HOP-62
[36] = system: RPMI-8226
[37] = system: HCC 2998
[38] = system: UACC-62
[39] = system: SNB-19
[40] = system: SR
[41] = system: LOX IMVI
[42] = system: OVCAR-4
[43] = system: PC-3
[44] = system: BT-549
[45] = system: SK-MEL-28
[46] = system: Hs-578T
[47] = system: SF-539
[48] = system: DU-145
[49] = system: MDA-MB-435
[50] = system: MDA-MB-231
[51] = system: MDA-N
[52] = system: RXF 393
[53] = system: NCI-H522
[54] = system: SK-MEL-2
[55] = system: T47D
[56] = system: CCRF-CEM
[57] = system: MCF7
[58] = system: TK-10
[59] = system: SK-OV-3
[60] = system: SK-MEL-5
[61] = system: MOLT-4
[62] = system: SF-295
[63] = system: CAKI-1
[64] = system: SF-268
[65] = system: NCI/ADR-RES
[66] = system: HOP-18

Measured: GI50

COc1cccc(C2CC(C)=Nc3c(ccc4c3C(=O)c3ccccc3C4=O)N2)c1O (stereo not given)
inactive: [1] 5.41 µM | [2] 3.59 µM | [3] > 100 µM | [4] > 100 µM | [5] 3 µM | [6] > 100 µM | [8] > 100 µM | [9] > 100 µM | [10] 9.62 µM | [11] 9.46 µM | [12] > 100 µM | [13] 20.5 µM | [14] > 100 µM | [15] > 100 µM | [16] > 100 µM | [17] > 100 µM | [18] 9.2 µM | [19] 33.6 µM | [20] > 100 µM | [21] 15 µM | [22] > 100 µM | [23] > 100 µM | [24] > 100 µM | [25] 9.71 µM | [26] > 100 µM | [27] > 100 µM | [28] > 100 µM | [29] 7.52 µM | [30] > 100 µM | [31] 33 µM | [32] 3.78 µM | [33] 4.94 µM | [34] > 100 µM | [35] 3.24 µM | [36] 79.3 µM | [37] > 100 µM | [38] > 100 µM | [39] > 100 µM
26.9 µM: [7]

c1ccc(CCN(Cc2nc3ccccc3[nH]2)Cc2nc3ccccc3[nH]2)cc1
inactive: [1] 2.41 µM | [2] 12.3 µM | [3] 14.6 µM | [4] 8.15 µM | [5] 14.5 µM | [6] 23.8 µM | [8] 17.3 µM | [40] 9.27 µM | [9] 13.6 µM | [11] 4.79 µM | [12] 4.67 µM | [41] 10.1 µM | [42] 17.5 µM | [43] 11.5 µM | [13] 10.3 µM | [14] 39.1 µM | [15] 17.1 µM | [16] 16 µM | [44] 12.1 µM | [17] 2.86 µM | [45] 13.7 µM | [18] 12.9 µM | [46] 20.2 µM | [47] 20.7 µM | [48] 14.4 µM | [49] 12.4 µM | [50] 13.2 µM | [51] 16.2 µM | [19] 27.6 µM | [20] 13.4 µM | [22] 12.5 µM | [52] 13.3 µM | [24] 15.9 µM | [53] 17 µM | [25] 20.2 µM | [54] 18 µM | [27] 16.4 µM | [29] 10 µM | [55] 1.79 µM | [56] 3.39 µM | [30] 21.6 µM | [31] 10.9 µM | [57] 11.7 µM | [58] 16.3 µM | [32] 6.59 µM | [59] 24.4 µM | [33] 6.18 µM | [35] 11.3 µM | [60] 3.86 µM | [61] 6.59 µM | [62] 14.8 µM | [36] 3.05 µM | [63] 3.85 µM | [37] 16.9 µM | [64] 13.6 µM | [65] 5.93 µM | [38] 13.4 µM | [39] 16.2 µM
7.45 µM: [7]

COc1cc(C2c3cc4c(cc3[C@@H](NCCCN3CCCC3=O)C3COC(=O)[C@H]23)OCO4)cc(OC)c1O (stereo not given in full)
inactive: [66] 28.7 µM | [2] 21 µM | [11] 3.41 µM | [14] > 100 µM | [45] 15.4 µM | [20] 7.76 µM | [52] 6.84 µM | [25] 45.9 µM | [54] 36.2 µM | [27] 1.67 µM | [58] 30.3 µM | [59] 4.29 µM | [37] 19.1 µM

Cc1c2cccc-2c(OCCO)cc2c1[nH]c1ccccc12
3.16 µM: [7]
inactive: [1] 2.16 µM | [2] 2.58 µM | [3] 2.09 µM | [4] 1.88 µM | [5] 3.15 µM | [6] 2.26 µM | [8] 3.52 µM | [40] 5.27 µM | [9] 11.8 µM | [11] 1.64 µM | [12] 3.01 µM | [41] 1.95 µM | [42] 3.43 µM | [43] 2.72 µM | [13] 3.52 µM | [15] 3.15 µM | [16] 2.54 µM | [44] 2.92 µM | [17] 3.1 µM | [45] 4.49 µM | [18] 1.97 µM | [46] 1.67 µM | [47] 1.74 µM | [48] 5.32 µM | [49] 3.53 µM | [50] 1.98 µM | [51] 2.76 µM | [19] 2.96 µM | [20] 1.87 µM | [22] 2.75 µM | [52] 2.37 µM | [24] 2.24 µM | [53] 1.83 µM | [25] 1.81 µM | [54] 3.72 µM | [27] 1.71 µM | [29] 3.61 µM | [55] 3.24 µM | [56] 4.75 µM | [30] 1.73 µM | [31] 1.5 µM | [57] 2.69 µM | [58] 4.06 µM | [32] 1.89 µM | [59] 3.27 µM | [33] 3.6 µM | [35] 3.42 µM | [60] 1.34 µM | [61] 2.99 µM | [62] 3.26 µM | [36] 3 µM | [63] 1.59 µM | [37] 3.15 µM | [64] 1.65 µM | [65] 3.03 µM | [38] 2.67 µM | [39] 8.57 µM
active: [14] 1.04 µM
